{"source": "patent US20150219624A1", "about": "“METHODS FOR IDENTIFYING ANTI-CANCER COMPOUNDS” (MEMORIAL SLOAN KETTERING CANCER CENTER, priority 2013, published 2015)", "key": {"[1]": {"system": "cap-dependent translation", "assay": "Dual-luciferase reporter assay (capped vs IRES-driven luciferase)", "assay_type": "cell-based", "settings": "renilla and firefly luciferase either capped or under control of an IRES element", "method": "Luciferase assays. Four tandem repeats of the (CGG)4 12-mer motif (GQs) or random sequence matched for length and GC content (random) were cloned into the 5′UTR of Renilla luciferase plasmid pGL4.73. Empty firefly luciferase plasmid pGL4.13 or HCV-IRES firefly were used as internal controls. Luciferase assays were performed using Dual-Luciferase Reporter Assay System (Promega E1960) following the manufacturer's instructions. GQs sequence: […]"}, "[2]": {"system": "primary human T-ALL samples", "assay": "Viability / apoptosis induction in primary human T-ALL samples", "assay_type": "cell-based", "from_the_text": "(§1) E) Simplified diagram of rapamycin and silvestrol mechanism of action."}, "KOPT-K1 xenografts": {"system": "KOPT-K1 xenografts", "assay": "KOPT-K1 xenograft study", "settings": "for tumor growth: d 0-6, systemic; for toxicity, death, weight loss: treated mice, therapeutic doses", "method": "Statistical analysis. All Kaplan-Meier curves were analyzed using the Mantel-Cox test. The significance of xenografted tumor size differences was determined using two-way repeated measures ANOVA tests. RT-PCRs were analyzed with two tailed t-tests.\nXenografts. 5,000,000 KOPT-K1 cells in 30% matrigel (BD 354234) were injected subcutaneously into C.B-17 scid mice. […] Tumor size was measured daily by caliper. P-values were calculated using 2-way repeated measures ANOVA.\nCycloheximide (C7698) and Rapamycin (R8781) were purchased from Sigma.\nD) KOPT-K1 xenograft studies."}, "[3]": {"system": "S6 phosphorylation and AKT (T308) phosphorylation", "assay": "Immunoblots of S6 and AKT phosphorylation in KOPT-K1 cells", "assay_type": "cell-based, human", "settings": "25 nM, 48 hours", "method": "(§2) Immunoblots. Lysates were made using Laemli lysis buffer. 30 ug of protein was loaded onto SDS-PAGE gels then transferred onto Immobilon-FL Transfer Membranes (Millipore IPFL00010). The antibodies used were α-Tubulin (Sigma T5168), β-actin (Sigma A5316), Myc (Santa Cruz Biotechnology sc-40), p-Akt 308 (Cell Signaling 9275), Akt (Cell Signaling 9272), S6 (Cell Signaling 2317), and p-S6 (Cell Signaling 2215), Notch1 (Cell signaling 3608), Myb (Santa Cruz Biotechnology, sc-517), CDK6 (Cell Signaling 3136), EZH2 (Cell Signaling 5246), Mdm2 (Santa Cruz Biotechnology, sc-965), Bcl2 (Santa Cruz Biotechnology, sc-509), Run×1 (Cell Signaling 4336), and GAPDH (Cell Signaling 5174).\nas §1"}, "JURKAT and KOPT-K1 cells": {"system": "JURKAT and KOPT-K1 cells", "assay": "Immunoblots of target proteins in human T-ALL lines", "assay_type": "cell-based", "settings": "25 nM, immunoblot", "method": "as §2\nGiven the complexity of the RF data analysis, it was important to directly confirm loss of expression for at least some of these proteins. Briefly, immunoblots on JURKAT and KOPT-K1 cells treated with silvestrol (25 nM) and loaded with equal amounts of total protein confirmed dramatic loss of MYC, NOTCH1, BCL2, and CCND3 proteins (FIG. 6A). The effect on MYC was especially striking, it was dose dependent (FIG. 6B), lasted for 48 h, and was also achieved in xenografts in vivo (Figure S6A-B). […] As expected, ACTIN, TUBULIN, and GAPDH were not affected (FIG. 6A). […] The small and significant increase in MYC mRNA levels might be consistent with prior reports of a MYC auto-regulatory mechanism (Penn et al., 1990a; Penn et al., 1990b) (FIG. 6C).\nFIG. 6 depicts validation of selected silvestrol targets. A) Immunoblots of lysates from human T-ALL lines treated with silvestrol (25 nM) and probed as indicated. B) Immunoblots of lysates from JURKAT cells treated with escalating doses of silvestrol and probed as indicated. C) mRNA levels for the corresponding genes treated with vehicle (DMSO, black) or silvestrol (red, 25 nM); D) Volcano plot of mRNA expression changes of all TE Down and rDiff genes in T-ALL samples (n=9) compared to normal thymocytes (n=4). E) Kaplan-Meier analysis showing time to leukemia development (as in FIG. 1B). Wild-type HPCs transduced with NOTCH1-ICN and empty vector (black, n=14), Myb (red, n=4), Ccnd3 T283A (orange, n=5), or shEzh2 (orange, n=10), vavP-Bcl2 (brown, n=4), p53−/− (green, n=3). F) Effect of OmoMYCER activation on survival of leukemic animals; (d=0 represents start of therapy/tamoxifen (TAM) administration). Inset: clearance of GFP expressing murine T-ALL cells from the marrow upon OmomycER activation (Untr: untreated, TAM: tamoxifen). G) Competition experiment (as in FIG. 1C/D) showing the percentage of each starting GFP positive population of murine T-ALL cells partially transduced with the indicated constructs and treated with silvestrol (* indicates p<0.05).\nFIG. 13 depicts the relative contribution of MYC and other silvestrol targets in T-ALL. […]"}}, "note": "pIC50: −log10 of the molar value.", "data": [{"compound": "COC(=O)[C@H]1[C@@H](O)[C@@]2(O)c3c(OC)cc(O[C@@H]4O[C@@H]([C@H](O)CO)CO[C@H]4OC)cc3O[C@@]2(c2ccc(OC)cc2)[C@@H]1c1ccccc1", "note": "[silvestrol]", "values": [{"measurement": "block of cap-dependent versus IRES-dependent translation", "setting": "[1]", "result": "preferentially block cap-dependent over IRES-dependent translation"}, {"measurement": "pIC50", "setting": "[2]; primary human T-ALL samples in vitro, 48 hours", "result": "7.89 to 8.52"}, {"measurement": "tumor growth", "setting": "KOPT-K1 xenografts; 0.5 mg/kg, n=7, p<0.001", "result": "significant delay in tumor growth"}, {"measurement": "toxicity, death, weight loss", "setting": "KOPT-K1 xenografts", "result": "no severe toxicity, death, or weight loss"}, {"measurement": "phosphorylation of AKT (T308)", "setting": "[3]", "result": "did not lead to phosphorylation of AKT (T308)"}, {"measurement": "ribosomal S6 phosphorylation / S6 kinase activity", "setting": "[3]", "result": "does not affect S6 kinase activity"}, {"measurement": "ACTIN, TUBULIN and GAPDH protein levels", "setting": "JURKAT and KOPT-K1 cells", "result": "not affected"}, {"measurement": "MYB, CDK6, EZH2 and RUNX1/AML1 protein expression", "setting": "JURKAT and KOPT-K1 cells", "result": "somewhat less decreased"}, {"measurement": "MYC, NOTCH1, BCL2 and CCND3 protein levels", "setting": "JURKAT and KOPT-K1 cells", "result": "dramatic loss"}]}, {"compound": "(±)-CR-31-B", "values": [{"measurement": "block of cap-dependent versus IRES-dependent translation", "setting": "[1]", "result": "preferentially block cap-dependent over IRES-dependent translation"}, {"measurement": "in vitro activity against T-ALL compared with silvestrol", "setting": "[2]; not shown", "result": "similar"}, {"measurement": "tumor growth", "setting": "KOPT-K1 xenografts; 0.2 mg/kg, n=8, p<0.001", "result": "significant delay in tumor growth"}, {"measurement": "pathologic analysis of treated tumors (TUNEL, Ki-67)", "setting": "KOPT-K1 xenografts; treated KOPT-K1 tumors", "result": "diffuse apoptosis by TUNEL and loss of proliferation by Ki-67"}, {"measurement": "toxicity, death, weight loss", "setting": "KOPT-K1 xenografts", "result": "no severe toxicity, death, or weight loss"}, {"measurement": "phosphorylation of AKT (T308)", "setting": "[3]", "result": "did not lead to phosphorylation of AKT (T308)"}, {"measurement": "ribosomal S6 phosphorylation / S6 kinase activity", "setting": "[3]", "result": "does not affect S6 kinase activity"}, {"measurement": "target protein levels compared with silvestrol result", "setting": "JURKAT and KOPT-K1 cells; 24H", "result": "same result was confirmed"}]}]}
